# Measured values: patent publication US11446298B2, “Pyrimidine derivatives” (Idorsia Pharmaceuticals Ltd, priority 2017, dated 2022)
# How the values were obtained:
# Assay type in all cases: cell-based
# [1] = biological target: T1, PTGER4 (EP4) (Homo sapiens, UniProt P35408); assay: hEP4 b-Arrestin Assay (PathHunter HEK 293 PTGER4 b-arrestin cells, PGE2 20 nM); conditions: antagonistic activity, beta-arrestin assay, HEK 293 PTGER4 cells, PGE2 20 nM (EC80); read-out: hEP4 b-arr IC50
# T1 construct: host or cells: HEK 293 (PathHunter, stably transfected)
# Outline: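 PathHunter HEK 293 EP4 b-arrestin enzyme-complementation cells preincubated 15 min at 37° C with compound (10 μM-2 nM or 1 μM-0.2 nM), then stimulated 120 min with 20 nM PGE2 (EC80). Chemiluminescence read; IC50 from duplicate % activity vs DMSO, one-site fit, averaged over repeats.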
# [2] = biological target: T2, EP4 (Homo sapiens, UniProt P35408); assay: hEP4 cAMP Assay (BT549 breast cancer cells, HTRF cAMP, PGE2 6 nM); conditions: antagonistic activity, PGE2 6 nM (EC80)
# T2 construct: BT549 breast cancer cells, express high endogenous EP4 levels and very low EP2 levels; host or cells: BT549 breast cancer cells
# Outline: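 Antagonism is measured as inhibition of PGE2 (6 nM final, EC80) cAMP accumulation in EP4-expressing BT549 breast cancer cells, after a 45 min room-temperature compound pre-incubation and 30 min agonist step, with 2 mM IBMX present. HTRF ratio gives cAMP relative to DMSO; IC50 fitted, means over repeat runs.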
# [3] = biological target: T3, EP2 (Homo sapiens, UniProt P43116); assay: hEP2 cAMP Assay (SF295 glioblastoma cells, HTRF cAMP, PGE2 75 nM); conditions: antagonistic activity, PGE2 75 nM (EC80)
# T3 construct: SF295 glioblastoma cells express high endogenous EP2 and no EP4; host or cells: SF295 glioblastoma cells
# Outline: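 IC50 values derive from duplicate-point curves of percent cAMP relative to DMSO, read by HTRF (665/620 nm) against a cAMP calibrator. Compounds (30 μM to 0.01 nM ranges) were given 45 min at room temperature before 30 min with 75 nM PGE2, in EP2-only SF295 cells with 2 mM IBMX.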
# [4] = biological target: T4, PTGER2 (EP2) (Homo sapiens, UniProt P43116); assay: hEP2 b-Arrestin Assay (PathHunter HEK 293 PTGER2 b-arrestin cells, PGE2 5 μM); conditions: antagonistic activity, beta-arrestin assay, HEK 293 PTGER2 cells, PGE2 5 μM (EC80); read-out: hEP2 b-arr IC50
# T4 construct: host or cells: HEK 293 (PathHunter, stably transfected)
# Outline: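 PathHunter enzyme-fragment complementation in HEK 293 cells: compounds (10 μM-2 nM or 1 μM-0.2 nM) pre-incubated 15 min at 37 °C, then 5 μM PGE2 (EC80) for 120 min at 37 °C. Chemiluminescence read after 1 h detection; IC50 from duplicate dose-response fits, means of repeats.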
# T4 sequence (P43116 whole entry): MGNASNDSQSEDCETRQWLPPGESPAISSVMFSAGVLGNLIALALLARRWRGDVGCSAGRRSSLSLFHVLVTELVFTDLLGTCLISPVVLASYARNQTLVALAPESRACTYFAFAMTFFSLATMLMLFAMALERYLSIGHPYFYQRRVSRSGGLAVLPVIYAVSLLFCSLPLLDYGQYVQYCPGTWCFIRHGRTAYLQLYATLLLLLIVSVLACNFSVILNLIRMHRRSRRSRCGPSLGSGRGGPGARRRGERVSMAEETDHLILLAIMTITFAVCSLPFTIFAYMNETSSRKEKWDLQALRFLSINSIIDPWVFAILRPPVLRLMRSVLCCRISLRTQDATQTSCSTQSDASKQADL
# T3 sequence (P43116 whole entry): as above
# T1 sequence (P35408 whole entry): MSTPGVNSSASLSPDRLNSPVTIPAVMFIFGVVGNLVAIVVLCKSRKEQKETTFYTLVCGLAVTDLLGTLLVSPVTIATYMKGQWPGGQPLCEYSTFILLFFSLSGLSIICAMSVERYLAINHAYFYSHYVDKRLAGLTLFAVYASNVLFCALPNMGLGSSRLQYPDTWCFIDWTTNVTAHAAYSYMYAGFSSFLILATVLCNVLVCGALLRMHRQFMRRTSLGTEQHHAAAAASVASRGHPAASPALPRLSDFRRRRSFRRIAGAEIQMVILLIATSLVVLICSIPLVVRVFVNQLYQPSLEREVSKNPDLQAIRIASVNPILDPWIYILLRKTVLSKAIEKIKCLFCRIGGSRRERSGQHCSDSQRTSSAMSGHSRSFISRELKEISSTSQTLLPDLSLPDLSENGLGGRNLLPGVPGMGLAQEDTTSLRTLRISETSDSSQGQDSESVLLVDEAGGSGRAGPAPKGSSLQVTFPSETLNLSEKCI
# T2 sequence (P35408 whole entry): as above
Structure (SMILES),IC50 [1],IC50 [2],IC50 [3],IC50 [4]
"CCOc1cc(-c2cc(NCCc3cccc4c(F)cccc34)ncn2)ccc1CC(=O)O [Example 163, (2-Ethoxy-4-{6-[2-(5-fluoro-naphthalen-1-yl)-ethylamino]-pyrimidin-4-yl}-phenyl)-acetic acid]",294 nM,180 nM,202 nM,80 nM
"CCOc1cc(-c2cc(NCCc3cccc4nc(C)sc34)ncn2)sc1C(=O)O [Example 31, 3-Ethoxy-5-{6-[2-(2-methyl-benzothiazol-7-yl)-ethylamino]-pyrimidin-4-yl}-thiophene-2-carboxylic acid]",1410 nM,567 nM,190 nM,201 nM
"CCOc1cc(-c2cc(NCCc3c(OC)ccc4c3OCO4)ncn2)sc1C(=O)O [Example 44, 3-Ethoxy-5-{6-[2-(5-methoxy-benzo[1,3]dioxol-4-yl)-ethylamino]-pyrimidin-4-yl}-thiophene-2-carboxylic acid]",51 nM,42 nM,37 nM,36 nM
"CCOc1cc(-c2cc(NCCc3c(OC)ccc4nc(C)ccc34)ncn2)sc1C(=O)O [Example 13, 3-Ethoxy-5-{6-[2-(6-methoxy-2-methyl-quinolin-5-yl)-ethylamino]-pyrimidin-4-yl}-thiophene-2-carboxylic acid]",225 nM,138 nM,24 nM,25 nM
"CCOc1cc(-c2cc(NCCc3c(OCC)ccc4ccccc34)ncn2)sc1C(=O)O [Example 27, 3-Ethoxy-5-{6-[2-(2-ethoxy-naphthalen-1-yl)-ethylamino]-pyrimidin-4-yl}-thiophene-2-carboxylic acid]",53 nM,33 nM,2 nM,3 nM
"CCOc1cc(-c2cc(NCCc3cccc4ccoc34)ncn2)sc1C(=O)O [Example 35, 5-[6-(2-Benzofuran-7-yl-ethylamino)-pyrimidin-4-yl]-3-ethoxy-thiophene-2-carboxylic acid]",113 nM,92 nM,76 nM,115 nM
"CCOc1cc(-c2cc(NCCc3c(OC)ccc4ccccc34)ncn2)sc1CCC(=O)O [Example 131, 3-(3-Ethoxy-5-{6-[2-(2-methoxy-naphthalen-1-yl)-ethylamino]-pyrimidin-4-yl}-thiophen-2-yl)-propionic acid]",88 nM,157 nM,73 nM,54 nM
"COc1ccc2ncccc2c1CCNc1cc(-c2cc(C(F)(F)F)c(C(=O)O)s2)ncn1 [Example 81, 5-{6-[2-(6-Methoxy-quinolin-5-yl)-ethylamino]-pyrimidin-4-yl}-3-trifluoromethyl-thiophene-2-carboxylic acid]",427 nM,205 nM,30 nM,116 nM
"CCOc1cc(-c2cc(NCCc3c(OC)ccc4cccnc34)ncn2)sc1C(=O)O [Example 33, 3-Ethoxy-5-{6-[2-(7-methoxy-quinolin-8-yl)-ethylamino]-pyrimidin-4-yl}-thiophene-2-carboxylic acid]",252 nM,223 nM,78 nM,56 nM
"CCOc1cc(-c2cc(NCCc3ccc(C)c4ccccc34)ncn2)ccc1C(=O)O [Example 16, 2-Ethoxy-4-{6-[2-(4-methyl-naphthalen-1-yl)-ethylamino]-pyrimidin-4-yl}-benzoic acid]",290 nM,268 nM,176 nM,143 nM
"CCOc1cc(-c2cc(NCCc3c(OC)ccc4c3CCO4)ncn2)sc1C(=O)O [Example 34, 3-Ethoxy-5-{6-[2-(5-methoxy-2,3-dihydro-benzofuran-4-yl)-ethylamino]-pyrimidin-4-yl}-thiophene-2-carboxylic acid]",114 nM,152 nM,64 nM,39 nM
"CCOc1cc(-c2cc(NCCc3cccc4c3ccn4C)ncn2)sc1C(=O)O [Example 25, 3-Ethoxy-5-{6-[2-(1-methyl-1H-indol-4-yl)-ethylamino]-pyrimidin-4-yl}-thiophene-2-carboxylic acid]",145 nM,48 nM,15 nM,15 nM
"CCOc1ccc2ccccc2c1CCNc1cc(-c2ccc(C(=O)O)c(OC3CCC3)c2)ncn1 [Example 26, 2-Cyclobutoxy-4-{6-[2-(2-ethoxy-naphthalen-1-yl)-ethylamino]-pyrimidin-4-yl}-benzoic acid]",392 nM,566 nM,11 nM,10 nM
"CCOc1cc(-c2cc(NCCc3c(C)c(C)cc4ccccc34)ncn2)sc1C(=O)O [Example 12, 5-{6-[2-(2,3-Dimethyl-naphthalen-1-yl)-ethylamino]-pyrimidin-4-yl}-3-ethoxy-thiophene-2-carboxylic acid]",52 nM,17 nM,17 nM,27 nM
"COc1ccc2ccccc2c1CCNc1cc(-c2ccc(C(=O)O)c(OC(F)F)c2)ncn1 [Example 128, 2-Difluoromethoxy-4-{6-[2-(2-methoxy-naphthalen-1-yl)-ethylamino]-pyrimidin-4-yl}-benzoic acid]",291 nM,250 nM,3 nM,10 nM

# These reach a lower IC50 [1]. Values come first.
IC50 [1],IC50 [2],IC50 [3],IC50 [4],Structure (SMILES)
41 nM,79 nM,22 nM,6 nM,"CCOc1cc(-c2cc(NCCc3c(OC)ccc4ccccc34)ncn2)ccc1NC(=O)C(=O)O [Example 133, N-(2-Ethoxy-4-{6-[2-(2-methoxy-naphthalen-1-yl)-ethylamino]-pyrimidin-4-yl}-phenyl)-oxalamic acid]"
37 nM,37 nM,37 nM,16 nM,"CCOc1cc(-c2cc(NCCc3cccc4[nH]ccc34)ncn2)sc1-c1noc(=O)[nH]1 [Example 137, 3-(3-Ethoxy-5-{6-[2-(1H-indol-4-yl)-ethylamino]-pyrimidin-4-yl}-thiophen-2-yl)-[1,2,4]oxadiazol-5(4H)-one]"
24 nM,86 nM,10 nM,3 nM,"CCOc1cc(-c2cc(NCCc3c(OC)ccc4ccccc34)ncn2)sc1C(=O)NS(C)(=O)=O [Example 136, N-(3-Ethoxy-5-{6-[2-(2-methoxy-naphthalen-1-yl)-ethylamino]-pyrimidin-4-yl}-thiophene-2-carbonyl)-methanesulfonamide]"
19 nM,72 nM,10 nM,10 nM,"CCOc1cc(-c2cc(NCCc3c(OC(F)F)ccc4ccccc34)ncn2)sc1C(=O)O [Example 32, 5-{6-[2-(2-Difluoromethoxy-naphthalen-1-yl)-ethylamino]-pyrimidin-4-yl}-3-ethoxy-thiophene-2-carboxylic acid]"
17 nM,38 nM,141 nM,156 nM,"CCOc1cc(-c2cc(NCCc3ccc(OC)c4ccccc34)ncn2)sc1C(=O)O [Example 59, 3-Ethoxy-5-{6-[2-(4-methoxy-naphthalen-1-yl)-ethylamino]-pyrimidin-4-yl}-thiophene-2-carboxylic acid]"
15 nM,35 nM,31 nM,32 nM,"CCOc1cc(-c2cc(NCCc3cc(OC)cc4ccccc34)ncn2)sc1C(=O)O [Example 42, 3-Ethoxy-5-{6-[2-(3-methoxy-naphthalen-1-yl)-ethylamino]-pyrimidin-4-yl}-thiophene-2-carboxylic acid]"
12 nM,55 nM,94 nM,11 nM,"CCOc1cc(-c2cc(NCCc3c(OC)ccc4ccccc34)ncn2)sc1/C=C/C(=O)O [Example 118, (E)-3-(3-Ethoxy-5-{6-[2-(2-methoxy-naphthalen-1-yl)-ethylamino]-pyrimidin-4-yl}-thiophen-2-yl)-acrylic acid]"
6 nM,52 nM,15 nM,5 nM,"CCOc1nc(-c2cc(NCCc3c(OC)ccc4ccccc34)ncn2)sc1-c1noc(=O)[nH]1 [Example 149, 3-(4-Ethoxy-2-{6-[2-(2-methoxy-naphthalen-1-yl)-ethylamino]-pyrimidin-4-yl}-thiazol-5-yl)-[1,2,4]oxadiazol-5(4H)-one]"
4 nM,8 nM,6 nM,3 nM,"CCOc1cc(-c2cc(NCCc3c(OC)ccc4ccccc34)ncn2)sc1-c1noc(=O)[nH]1 [Example 138, 3-(3-Ethoxy-5-{6-[2-(2-methoxy-naphthalen-1-yl)-ethylamino]-pyrimidin-4-yl}-thiophen-2-yl)-[1,2,4]oxadiazol-5(4H)-one]"
